Source: publication PMC5344956 (Cancer Chemotherapy and Pharmacology, 2017)

Assays:
human liver microsomes = test: In vitro metabolism with human liver microsomes and CYP-specific chemical inhibitors (data not shown); type: in vitro ADME; settings: CYP-specific chemical inhibitors
[1] = Metabolite characterization by LC/MS/MS in human plasma, urine, and feces; settings: human plasma, urine, feces; LC/MS/MS
Protocol: The remaining eluate stream of 0.16 mL/min from the HPLC runs was diverted to the inlet of the mass spectrometer. The samples were analyzed using a heated electrospray ionization probe. Full-scan positive ion MS data were collected using Finnigan Exactive (MS^1) or Q-Exactive (MS^1 and MS^2) mass spectrometers (Thermo Fisher Scientific Inc.) Exact conditions are described in the Online Resource 3.
Finnigan Exactive or Q-Exactive mass spectrometers (Thermo Fisher Scientific Inc., San Jose, CA) were used to collect full scan MS^1 and MS^2 data.

[2] = Metabolite profiling of plasma (HPLC-radiochromatography); type: in vivo, human; settings: % of TRA
Protocol: For each subject, a 0–24 h pooled plasma sample was prepared according to the scheme outlined in the literature. In addition, several pooled plasma samples across all subjects were prepared at these time points: 5, 10, 12, […], and 48 h, and every 24 h thereafter until 240 h.
All pooled 0–24, 5, 10, 12, and 24 h plasma samples were processed as follows. […] The samples were vortexed for 30 min and centrifuged at 4500g at 4 °C for 6 min. The supernatants were transferred into new polypropylene tubes and kept on ice. The resulting plasma protein pellets were extracted twice to ensure good recovery and the extracts were combined. The combined extracts were loaded onto Ostro sample preparation plates (Waters Corporation, Milford, MA, USA), dried, eluted with 0.2 mL of cold acetonitrile, and all eluates were collected and evaporated under nitrogen (TurboVap LV; Caliper Life Sciences, Hopkinton, MA, USA). The dry residues were reconstituted in 0.1 mL of methanol, and a 0.005-mL aliquot was removed for determination of radioactivity. The remainder of the supernatants were transferred to high-performance liquid chromatography (HPLC) vials and stored at −80 °C until analysis.
Pooled post-24-h plasma samples were extracted using a slightly modified procedure. […] Appropriate volumes of formic acid were added to achieve a final concentration of 1%. Then, the samples were warmed to 37 °C and loaded to preconditioned Oasis HLB cartridges (Waters Corporation, Milford, MA, USA). These columns were then washed with water, dried under vacuum, and eluted with methanol. The eluates were collected and evaporated under nitrogen. The dry residues were reconstituted in 0.1 mL of methanol, and a 0.005-mL aliquot was removed for determination of radioactivity. The remainder of the supernatants were transferred to HPLC vials and stored at −80 °C until analysis.
(§1) A Finnigan Surveyor HPLC system (Thermo Fisher Scientific Inc., San Jose, CA, USA), consisting of an LC pump plus an autosampler and a UV–Vis plus detector, was used mostly for profiling (except the post-24-h plasma samples, which were analyzed using a Dionex HPLC system). A Phenomenex® Gemini® C18, 5-μm, 3.0 × 100-mm column (Phenomenex Inc., Torrance, CA, USA) was used along with a C-12 guard column (4 × 2 mm). LC conditions were as follows: solvent A was 10 mM ammonium bicarbonate in water (pH 10.0) and solvent B was 100% methanol and the flow rate was 0.8 mL/min. The following gradient was employed (B%): 0–5 min (20%), 32 min (42%), 33 min (60%), 55 min (70%), 56–60 min (95%), and 62–70 min (20%).
(§2) Reconstituted solvent extracts (0.050–0.10 mL) of plasma, urine, or feces were injected onto the HPLC column. The post-column eluate was split after UV detection into two streams (0.64 and 0.16 mL/min). The 0.64-mL stream was diverted to a fraction collector (Gilson FX 204; Gilson Medical Electronics, Middleton, WI, USA) to be collected in 96-well plates at 0.16 min/well (ScintiPlates; PerkinElmer Life Sciences, Shelton, CT, USA), and the 0.16-mL stream was directed to the mass spectrometer. The solvent in the 96-well plates was removed at 40 °C using a Genevac evaporator (Genevac, Inc., Stone Ridge, NY, USA).
(§3) The radioactivity counts per minute (CPM) in each well was determined using a MicroBeta scintillation counter (PerkinElmer Life and Analytical Sciences). The resulting CPM vs. time data were processed using Excel (Microsoft Corporation, Seattle, WA, USA). The CPM in each well was background-subtracted (using the average CPM values of the blank region of the HPLC run). Radiochromatographic profiles were obtained by plotting the resulting net CPM values against time after injection. Radioactive peaks in the chromatographic profiles were identified, and the radioactivity in each peak was summed and reported as a percentage of TRA in the HPLC run.

[3] = Metabolite profiling of feces (HPLC-radiochromatography); type: in vivo, human; settings: 0–144 h pool; for % Distribution in matrix: % of fecal TRA
Protocol: One-gram samples of the fecal homogenates were transferred to 50-mL polypropylene tubes, extracted with 4 mL of methanol, and centrifuged (4500g). The resulting residues were extracted three more times (once with 2 mL of methanol and twice with 1 mL of methanol containing 1% formic acid) and centrifuged. All supernatants were combined and evaporated under nitrogen, and the residue was reconstituted with 0.5 mL of methanol, vortexed, sonicated, and centrifuged. A 0.010-mL aliquot of the supernatant was removed for determination of radioactivity, and the remainder of the supernatant was transferred to an HPLC vial and stored at −80 °C.
as §1, §2, §3

Cc1ccc(C(=O)Nc2ccc(CN3CCN(C)CC3)c(C(F)(F)F)c2)cc1C#Cc1cnc2cccnn12.Cl [Ponatinib, 3-(imidazo[1,2-b]pyridazin-3-ylethynyl)-4-methyl-N-(4-((4-methylpiperazin-1-yl)methyl)-3-(trifluoromethyl)phenyl)benzamide hydrochloride]
CYP enzymes that metabolize the compound (human liver microsomes): metabolized mostly by CYP3A4 and to a lesser extent by CYP2D6 and CYP2C8 | Matrix (in which the metabolite was found) [1]: P, U, F | % Distribution in plasma ([2]; 0–24 h pooled plasma): 25.5% | % Distribution in plasma ([2]; 5 h pooled plasma): 42.4% | % Distribution in plasma ([2]; 10 h pooled plasma): 36.3% | % Distribution in plasma ([2]; 12 h pooled plasma): 51.5% | % Distribution in plasma ([2]; 36 h pooled plasma): 4.2% | % Distribution in plasma ([2]; 48 h pooled plasma): 9.4% | % Distribution in plasma ([2]; 72 h pooled plasma): 12.8% | % Distribution in plasma ([2]; 96 h pooled plasma): 13.2% | % of total radioactive dose [3]: 20.5/2.8% | % Distribution in matrix [3]: 23.7/3.2% | % Distribution in matrix ([3]; listed as ponatinib): 23.7% | % of total radioactive dose ([3]; listed as ponatinib): 20.5%
